From ChEMBL document CHEMBL1132100, “Sodium channel activity and sigma binding of 2-aminopropanamide anticonvulsants” (Bioorg Med Chem Lett, 1999)

Assays:
[1] = Protective index (PI) is the ratio of TD50 in the rotarod test over the ED50 in the anticonvulsant test.; type: functional
Rattus norvegicus = experiment: Tested for the anticonvulsant activity administered 60 min orally before MES induction; type: functional; conditions: po, 1 h
[2] = molecular target: T1, Sodium channel alpha subunits; brain (Types I, II, III) (Rattus norvegicus, UniProt P04775+P04774+P08104); experiment: Inhibition of [3H]saxitoxin binding to rat brain sodium channel; type: tissue-based
Mus musculus = species: Mus musculus; experiment: Toxic dose causing 50% treated mice fall from the rotarod was evaluated
[3] = molecular target: T1, Sodium channel alpha subunits; brain (Types I, II, III); experiment: Inhibition of [3H]batrachotoxin binding to rat brain sodium channel
[4] = molecular target: Sigma non-opioid intracellular receptor 1 (Rattus norvegicus, UniProt Q9R0C9); experiment: Inhibition of [3H]pentazocine binding to Opioid receptor sigma 1
[5] = Lethal dose in rats; type: toxicity; conditions: rat, in vivo

Sigma non-opioid intracellular receptor 1, sequence (Q9R0C9 whole entry): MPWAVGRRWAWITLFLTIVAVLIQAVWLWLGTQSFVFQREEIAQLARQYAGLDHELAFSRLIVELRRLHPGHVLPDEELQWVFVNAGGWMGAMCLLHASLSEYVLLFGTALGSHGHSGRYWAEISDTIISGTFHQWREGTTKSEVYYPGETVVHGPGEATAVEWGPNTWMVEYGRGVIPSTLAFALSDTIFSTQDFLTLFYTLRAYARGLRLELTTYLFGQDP

| SMILES | PI [1] | ED50 (Rattus norvegicus) [mg/kg] | IC50 [2] [µM] | TD50 (Mus musculus) [mg/kg] | IC50 [3] [µM] | IC50 [4] [µM] | LD50 [5] [mg/kg] | IC50 ([3]; read-out: IC50) [µM] |
| --- | --- | --- | --- | --- | --- | --- | --- | --- |
| C[C@@H](NCc1ccc(OCCCc2ccccc2)cc1)C(N)=O | 102 | 12.6 | > 300 | 1280 | 7.8 | 0.28 |  |  |
| C[C@@H](NCc1ccc(OCc2cccc(F)c2)cc1)C(N)=O | 87.8 | 7.2 | > 300 | 584 | 8.5 | 0.28 |  |  |
| COc1ccc2c(c1)[C@]13CCCC[C@@H]1[C@H](C2)N(C)CC3 [DEXTROMETHORPHAN] |  | 12.9 | > 100 |  | 1.3 |  | 234 |  |
| C[C@H](NCc1ccc(OCc2ccccc2)cc1)C(=O)O |  | > 100 | > 300 |  | 150.8 |  |  |  |
| C[C@H](NCc1ccc(NCc2cccc(F)c2)cc1)C(N)=O | 88.3 | 6.6 | > 300 | 583 | 13.9 | 0.0344 |  |  |
| CNC(=O)[C@H](CO)NCc1ccc(OCc2cccc(F)c2)cc1 | 70.4 | 13 | > 300 | 915 | 26.3 | 0.588 |  |  |
| C[C@H](NCc1ccc(OCCCCc2ccccc2)cc1)C(N)=O | 81 | 12.4 | > 300 | 1000 | 1.1 | 0.55 |  |  |
| C[C@@H](NCc1ccc(NCc2cccc(F)c2)cc1)C(N)=O | 160 | 1.7 | > 300 | 272 | 11.3 | 0.28 |  |  |
| C[C@H](NCc1ccc(OCCCCCc2ccccc2)cc1)C(N)=O | 80.8 | 12.5 | > 300 | 1010 | 1.4 | > 10 |  |  |
| CNC(=O)[C@@H](CO)NCc1ccc(OCc2cccc(F)c2)cc1 | 92.6 | 6.4 | > 300 | 593 | 17.9 | 6.6 |  |  |
| C[C@H](NCc1ccc(OCCCc2ccccc2)cc1)C(N)=O | 87.2 | 6.7 | > 300 | 584 | 13.2 | 0.0193 |  |  |
| Nc1nnc(-c2cccc(Cl)c2Cl)c(N)n1 [LAMOTRIGINE] | 38.2 | 2.2 | > 100 | 84 | 185.9 | > 10 |  |  |
| COc1ccc(CN[C@@H](C)C(N)=O)cc1 |  | > 100 | > 300 |  | 145.8 | > 10 |  |  |
| CS(=O)(=O)O.C[C@H](NCc1ccc(OCc2cccc(F)c2)cc1)C(N)=O [SAFINAMIDE MESYLATE] | 78.2 | 8 | > 300 | 626 |  | 0.0197 |  | 8.2 |
